Patent publication US10995091B2 (Proximagen, LLC, priority 2010, dated 2021)

Each molecule was assayed against T1, Human CXCR4 transfected HEK293 cells (Homo sapiens, UniProt P61073) (assay: CXCR4 functional calcium assay (calcium flux FLIPR, antagonism of SDF1 response)). Conditions: CXCR4 functional activity, antagonism of SDF1 (EC50 concentration), read-out: CXCR4 fKi.
T1 construct: expressed in transfected cells; host or cells: HEK293
Format: cell-based
Outline: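 HEK293 cells stably transfected with human CXCR4 were loaded with 2 μM Fluo-4 AM in HBSS containing 2.5 mM probenecid, 0.1% BSA and 10 mM HEPES at pH 7.4 and 37° C. Compound was added first, then SDF1 at its EC50 concentration, and intracellular calcium fluorescence was followed on a FLIPR. Antagonist dose-response curves were fitted.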

T1 sequence (P61073 whole entry): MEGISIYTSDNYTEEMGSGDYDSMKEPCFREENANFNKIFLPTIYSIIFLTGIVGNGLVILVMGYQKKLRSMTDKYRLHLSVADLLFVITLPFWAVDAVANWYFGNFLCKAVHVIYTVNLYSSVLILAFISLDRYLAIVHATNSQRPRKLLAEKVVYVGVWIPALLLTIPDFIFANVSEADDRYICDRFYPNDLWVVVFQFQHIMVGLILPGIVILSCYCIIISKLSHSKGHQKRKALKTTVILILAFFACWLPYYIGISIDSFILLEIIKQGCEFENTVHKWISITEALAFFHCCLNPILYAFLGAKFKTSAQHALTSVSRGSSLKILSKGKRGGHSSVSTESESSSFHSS

Structure (SMILES) | Ki [µM]
O=C(Nc1ccncc1)c1cccc(N2CCCN(Cc3ccc(F)cc3Cl)CC2)n1 [Example 251, 6-{4-[(2-Chloro-4-fluorophenyl)methyl]-1,4-diazepan-1-yl}-N-(pyridin-4-yl)pyridine-2-carboxamide] | 0.1 to 0.5
O=C(Nc1ccncc1)c1cccc(N2CCC3CCCC(C2)N3C2CCN(Cc3ccccc3Cl)CC2)n1 (stereo not shown) [Example 218, 6-(10-{1-[(2-Chlorophenyl)methyl]piperidin-4-yl}-3,10-diazabicyclo[4.3.1]decan-3-yl)-N-(pyridin-4-yl)pyridine-2-carboxamide] | 0.1 to 0.5
c1cc(NCCNC2CCN(C3CCCC3)C2)nc(-c2ncc(C3CC3)[nH]2)c1 (stereo not shown) [Example 233, N-{2-[(1-Cyclopentylpyrrolidin-3-yl)amino]ethyl}-6-(5-cyclopropyl-1H-imidazol-2-yl)pyridin-2-amine] | 0.5 to 1
O=C(NCC1CC1)c1cccc(N2CCCN(CCCN3CCc4ccccc4C3)CC2)n1 [Example 252, N-(Cyclopropylmethyl)-6-{4-[3-(1,2,3,4-tetrahydroisoquinolin-2-yl)propyl]-1,4-diazepan-1-yl}pyridine-2-carboxamide] | 0.5 to 1
Cc1ccc(N2CCCN(C3CCN(C(C)C)CC3)CC2)nc1C(=O)NCC1CC1 [Example 125, N-(Cyclopropylmethyl)-3-methyl-6-{4-[1-(propan-2-yl)piperidin-4-yl]-1,4-diazepan-1-yl}pyridine-2-carboxamide] | 0.1 to 0.5
CC(C)(C)C1CCC(N2CCCN(c3cccc(C(=O)NCc4cccnc4)n3)CC2)CC1 (stereo not shown) [Example 256, 6-[4-(4-tert-Butylcyclohexyl)-1,4-diazepan-1-yl]-N-(pyridin-3-ylmethyl)pyridine-2-carboxamide] | 0.02 to 0.1
CC(C)N1CCOCC1CCN1CCCN(c2cccc(C(=O)Nc3ccncc3)n2)CC1 (stereo not shown) [Example 201, 6-(4-{2-[4-(Propan-2-yl)morpholin-3-yl]ethyl}-1,4-diazepan-1-yl)-N-(pyridin-4-yl)pyridine 2-carboxamide] | 0.1 to 0.5
O=C(NCC1CC1)c1cccc(N2CCCN(C3CCN(Cc4ccccc4)CC3)CC2)n1 [Example 129, 6-[4-(1-Benzylpiperidin-4-yl)-1,4-diazepan-1-yl]-N-(cyclopropylmethyl)pyridine-2-carboxamide] | 0.5 to 1
[2H]C1([2H])CCN(C2CCN(C(C)C)CC2)CCN1c1cccc(C(=O)NCC2CC2)n1 [Example 181, N-(Cyclopropylmethyl)-6-{7,7-dihydrogenio-4-[1-(propan-2-yl)piperidin-4-yl]-1,4-diazepan-1-yl}pyridine-2-carboxamide] | 0.02 to 0.1
CC(C)N1CCC(N2CCCN(c3cccc(-c4cc5cnccc5[nH]4)n3)CC2)CC1 [Example 97, 1-[1-(Propan-2-yl)piperidin-4-yl]-4-(6-{1H-pyrrolo[3,2-c]pyridine-2-yl}pyridine-2-yl)-1,4-diazepane] | 0.1 to 0.5
Cc1ccccc1CN1CCCC(N2CCN(c3cccc(C(=O)Nc4ccncc4)n3)CC2)CC1 (stereo not shown) [Example 240, 6-(4-{1-[(2-Methylphenyl)methyl]azepan-4-yl}piperazin-1-yl)-N-(pyridin-4-yl)pyridine-2-carboxamide] | 0.02 to 0.1
CC(C)N1CCC(N2CCCN(c3cccc(C(=O)NCc4cscn4)n3)CC2)CC1 [Example 42, 6-{4-[1-(Propan-2-yl)piperidin-4-yl]-1,4-diazepan-1-yl}-N-(1,3-thiazol-4-ylmethyl)pyridine-2-carboxamide] | 0.02 to 0.1
Cc1nc(-c2cccc(N3CCCN(C4CCN(C5CCCC5)CC4F)CC3)n2)[nH]c1C1CC1 (stereo not shown) [Example 214, 1-(1-Cyclopentyl-3-fluoropiperidin-4-yl)-4-[6-(4-cyclopropyl-5-methyl-1H-imidazol-2-yl)pyridin-2-yl]-1,4-diazepane] | 0.1 to 0.5
C[C@H](c1ccccc1)N1CCC(N2CCCN(c3cccc(C(=O)NCc4cccnc4)n3)CC2)CC1 [Example 92, 6-(4-{1-[(1R)-1-Phenylethyl]piperidin-4-yl}-1,4-diazepan-1-yl)-N-(pyridine-3-ylmethyl)pyridine-2-carboxamide] | 0.02 to 0.1
CC(C)N1CCC(N2CCCN(c3cccc(C(=O)N4CCc5ccccc5C4)n3)CC2)CC1 [Example 22, 2-[(6-{4-[1-(Propan-2-yl)piperidin-4-yl]-1,4-diazepan-1-yl}pyridin-2-yl)carbonyl]-1,2,3,4-tetrahydroisoquinoline] | 0.1 to 0.5
CC(C)N1CCC(N2CCCN(c3cccc(C(=O)N[C@@H]4CCOC4)n3)CC2)CC1 [Example 19, N-[(3R)-Oxolan-3-yl]-6-{4-[1-(propan-2-yl)piperidin-4-yl]-1,4-diazepan-1-yl}pyridine-2-carboxamide] | 0.1 to 0.5
CC(C)N1CCC(N2C3CCCC2CN(c2cccc(C(=O)NCC4CC4)n2)CC3)CC1 (stereo not shown) [Example 217, N-(Cyclopropylmethyl)-6-{10-[1-(propan-2-yl)piperidin-4-yl]-3,10-diazabicyclo[4.3.1]decan-3-yl}pyridine-2-carboxamide] | 0.1 to 0.5
CC(C)N1CCC(N2CCCN(c3cccc(C(=O)NCCO)n3)CC2)CC1 [Example 12, N-(2-Hydroxyethyl)-6-{4-[1-(propan-2-yl)piperidin-4-yl]-1,4-diazepan-1-yl}pyridine-2-carboxamide] | 0.1 to 0.5
CC(C)N1CCC(N2CCCN(c3cccc(-c4noc(-c5ccccc5)n4)n3)CC2)CC1 [Example 164, 1-[6-(5-Phenyl-1,2,4-oxadiazol-3-yl)pyridine-2-yl]-4-[1-(propan-2-yl)piperidin-4-yl]-1,4-diazepane] | 0.02 to 0.1
NC(=O)c1cccc(N2CCCN(C3CCN(Cc4ccccc4Cl)CC3)CC2)n1 [Example 136, 6-(4-{1-[(2-Chlorophenyl)methyl]piperidin-4-yl}-1,4-diazpan-1-yl)pyridine-2-carboxamide] | 0.1 to 0.5
CC(C)N1CCC(N2CCCN(c3cccc(-c4nc5ccccc5n4C)n3)CC2)CC1 [Example 140, 1-Methyl-2-(6-{4-[1-(propan-2-yl)piperidin-4-yl]-1,4-diazepan-1-yl}pyridin-2-yl)-1H-1,3-benzodiazole] | 0.5 to 1
CC(C)N1CCC(N2CCCN(c3cccc(C(=O)N[C@H]4CCOC4)n3)CC2)CC1 [Example 18, N-[(3S)-Oxolan-3-yl]-6-{4-[1-(propan-2-yl)piperidin-4-yl]-1,4-diazepan-1-yl}pyridine-2-carboxamide] | 0.1 to 0.5

Other lines, results leading:

Ki [µM] | Structure (SMILES)
0.02 to 0.1 | CC(C)N1CCC(N2CCCN(c3cccc(C(=O)NCc4ccccn4)n3)CC2)CC1 [Example 33, 6-{4-[1-(Propan-2-yl)piperidin-4-yl]-1,4-diazepan-1-yl}-N-(pyridin-2-ylmethyl)pyridine-2-carboxamide]
0.02 to 0.1 | O=C(NCC1CC1)c1cccc(N2CCCN(C3CCN([C@H]4CCc5ccccc54)CC3)CC2)n1 [Example 77, N-(Cyclopropylmethyl)-6-(4-{1-[(1S)-2,3-dihydro-1H-inden-1-yl]piperidin-4-yl}-1,4-diazepan-1-yl)pyridine-2-carboxamide]
0.02 to 0.1 | O=C(NC[C@H]1CCCO1)c1cccc(N2CCCN(C3CCN(Cc4ccccc4Cl)CC3)CC2)n1 [Example 51, 6-(4-{1-[(2-Chlorophenyl)methyl]piperidin-4-yl}-1,4-diazepan-1-yl)-N-[(2R)-oxolan-2-ylmethyl]pyridine-2-carboxamide]
0.02 to 0.1 | Cc1ccc2nc(-c3cccc(N4CCCN(C5CCN(C(C)C)CC5)CC4)n3)[nH]c2c1 [Example 148, 6-Methyl-2-(6-{4-[1-(propan-2-yl)piperidin-4-yl]-1,4-diazepan-1-yl}pyridine-2-yl)-1H-1,3-benzodiazole]
0.02 to 0.1 | CC(C)N1CCC(N2CCCN(c3cccc(C(=O)NCc4cocn4)n3)CC2)CC1 [Example 41, N-(1,3-Oxazol-4-ylmethyl)-6-{4-[1-(propan-2-yl)piperidin-4-yl]-1,4-diazepan-1-yl}pyridine-2-carboxamide]
< 0.02 | Cc1cnccc1NC(=O)c1cccc(N2CCCN(C3CCN(C(C)C)CC3)CC2)n1 [Example 88, N-(3-Methylpyridin-4-yl)-6-{4-[1-(propan-2-yl)piperidin-4-yl]-1,4-diazepan-1-yl}pyridine-2-carboxamide]
< 0.02 | O=C(Nc1ccncc1)c1cccc(N2CCCN(C3CCN(Cc4ccccc4Cl)CC3)CC2)n1 [Example 54, 6-(4-{1-[(2-Chlorophenyl)methyl]piperidin-4-yl}-1,4-diazepan-1-yl)-N-(pyridine-4-yl)pyridine-2-carboxamide]
< 0.02 | Cc1nc(-c2cccc(N3CC[C@@H](NC[C@H]4CCN(C5CCCC5)C4)C3)n2)[nH]c1C1CC1 [Example 225, (3R)—N-{[(3R)-1-Cyclopentylpyrrolidin-3-yl]methyl}-1-[6-(4-cyclopropyl-5-methyl-1H-imidazol-2-yl)pyridin-2-yl]pyrrolidin-3-amine]
< 0.02 | [2H]C1([2H])CCN(C2CCN([C@H](C)CC)CC2)CCN1c1cccc(C(=O)Nc2ccncc2)n1 [Example 176, 6-(4-{1-[(2R)-Butan-2-yl]piperidin-4-yl}-7,7-dihydrogenio-1,4-diazepan-1-yl)-N-(pyridine-4-yl)pyridine-2-carboxamide]
< 0.02 | CC(C)N1CCC(N2CCCN(c3cccc(-c4nc5cc(F)c(F)cc5[nH]4)n3)CC2)CC1 [Example 145, 5,6-Difluoro-2-(6-{4-[1-(propan-2-yl)piperidin-4-yl]-1,4-diazepan-1-yl}pyridine-2-yl)-1,3-benzodiazole]
< 0.02 | O=C(Nc1ccncc1)c1cccc(N2CC[C@@H](NC[C@H]3CCN(C4CCCC4)C3)C2)n1 [Example 227, 6-[(3R)-3-({[(3R)-1-Cyclopentylpyrrolidin-3-yl]methyl}amino)pyrrolidin-1-yl]-N-(pyridin-4-yl)pyridine-2-carboxamide]
< 0.02 | [2H]C1([2H])CCN(C2CCN(C(C)C)CC2)CCN1c1cccc(C(=O)Nc2ccncc2)n1 [Example 175, 6-{7,7-Dihydrogenio-4-[1-(propan-2-yl)piperidin-4-yl]-1,4-diazepan-1-yl}-N-(pyridine-4-yl)pyridine-2-carboxamide]
